Data taken from ChEMBL document CHEMBL1127159, “Preparation and biological evaluation of -fluoromethyl--methylene--butyrolactone and -butyrolactam” (Bioorg Med Chem Lett, 1993).
In brackets after ≈: the same amount, converted by molar mass.

Assays:
Format in all cases: functional, cell-based
[1] = test system: CCRF-CEM; assay: The compound was evaluated for antitumoral activity against human leukemia cell line CCRF CEM after 72 hr of incubation
[2] = test system: L1210/C; assay: The compound was evaluated for antitumoral activity against mouse leukemia cell line L1210/c after 72 hr of incubation; details: L1210, 72 h
[3] = test system: SK-MEL-28; assay: The compound was evaluated for antitumoral activity against human melanoma cell line P36 after 72 hr of incubation; details: SK-MEL-28, 72 h
[4] = test system: SW480; assay: The compound was evaluated for antitumoral activity against human cancer cell line SW480 after 72 hr of incubation; details: SW480, 72 h
[5] = test system: T-24; assay: The compound was evaluated for antitumoral activity against human cancer cell line T24 after 72 hr of incubation; details: T-24, 72 h

SMILES | IC50 [1] [µg/mL] | IC50 [2] [µg/mL] | IC50 [3] [µg/mL] | IC50 [4] [µg/mL] | IC50 [5] [µg/mL]
C=C1CC(C(F)F)OC1=O (stereo not given) | 4 (≈ 27 µM) | 3 (≈ 20.3 µM) | 2 (≈ 13.5 µM) | 4 (≈ 27 µM) | 0.5 (≈ 3.38 µM)
O=c1[nH]cc(F)c(=O)[nH]1 [FLUOROURACIL] | 4 (≈ 30.8 µM) | 0.2 (≈ 1.54 µM) | 11 (≈ 84.6 µM) | 6 (≈ 46.1 µM) | 6 (≈ 46.1 µM)
